Like-named read-outs stand apart in the source and are kept apart here.
What was measured:
[1] = test system: MCF-7/ADR; assay: Sulforhodamine B growth inhibition, breast panel; assay type: cell-based, human; settings: 48 h, SRB, read-out: GROWTH INHIBITION (GI 50)
Protocol: (§1) Each test compound was screened against a battery of cell lines representing eight different types of cancer. In a typical procedure 1×10^4 cells were seeded into each well of 96-well plates in 100 μL volume of RPMI-1640 containing antibiotics and 10% FCS.
(§2) The plates were incubated at 37° C. in presence of CO2. After 24 h, test compounds were evaluated at five 10 fold dilutions ranging from 100 to 0.01 μM. To each test well 100 μL of test compound solution was added and medium with vehicle was added to control wells and the plates were further incubated. After 48 h of incubation, plates were terminated by Sulforhodamine B method.
(§3) The optical density which is proportional to protein mass, is then read by automated spectrophotometric plate readers at a wavelength of 515 nm.

[2] = test system: U251; assay: Sulforhodamine B growth inhibition, CNS panel; assay type: cell-based, human; settings: SRB, read-out: GROWTH INHIBITION (GI 50)
Protocol: as §1, §2, §3

[3] = test system: SW-620; assay: Sulforhodamine B growth inhibition, colon panel; assay type: cell-based, human; settings: SW-620, colon, 48 h, SRB, read-out: GROWTH INHIBITION (GI 50)
Protocol: as §1, §2, §3

[4] = test system: H522; assay: Sulforhodamine B growth inhibition, lung panel; assay type: cell-based, human; settings: SRB, read-out: GROWTH INHIBITION (GI 50)
Protocol: as §1, §2, §3

[5] = test system: M14; assay: Sulforhodamine B growth inhibition, melanoma panel; assay type: cell-based, human; settings: 48 h, SRB, read-out: GROWTH INHIBITION (GI 50)
Protocol: as §1, §2, §3

[6] = test system: SKOV-3; assay: Sulforhodamine B growth inhibition, ovarian panel; assay type: cell-based, human; settings: SKOV-3, ovarian, 48 h, SRB, read-out: GROWTH INHIBITION (GI 50)
Protocol: as §1, §2, §3

[7] = test system: DU145; assay: Sulforhodamine B growth inhibition, prostate panel; assay type: cell-based, human; settings: SRB, read-out: GROWTH INHIBITION (GI 50)
Protocol: as §1, §2, §3

[8] = test system: A498; assay: Sulforhodamine B growth inhibition, renal panel; assay type: cell-based, human; settings: 48 h, SRB, read-out: GROWTH INHIBITION (GI 50)
Protocol: as §1, §2, §3

[9] = Plasma triglyceride and body weight reduction in Swiss albino mice; assay type: in vivo; settings: for Percentage reduction TG: plasma triglyceride
Protocol: (b) Plasma triglyceride and body weight reduction in Swiss albino mice Male Swiss albino mice (SAM) were obtained from NIN and housed in DRF animal house. All these animals were maintained under 12 hour light and dark cycle at 25±1° C. Animals were given standard laboratory chow (NIN, Hyderabad, India) and water, ad libitum. SAM of 20-25 g body weight range (Oliver, P., Plancke, M. O., Marzin, D., Clavey, V., Sauzieres, J and Fruchart, J. C. Effects of fenofibrate, gemfibrozil and nicotinic acid on plasma lipoprotein levels in normal and hyperlipidemic mice. Atherosclerosis. 1988. 70: 107-114).
The test compounds were administered orally to Swiss albino mice at 0.3 to 500 mg/kg dose for 6 days. Control mice were treated with vehicle (Chremophore/DMSO/H2O; dose 10 ml/kg).
The blood samples were collected in fed state 1 hour after drug administration on 0 and 6 day of treatment. The blood was collected from the retro-orbital sinus through heparinised capillary in EDTA containing tubes. After centrifugation, plasma sample was separated for triglyceride (Wieland, O. Methods of Enzymatic analysis. Bergermeyer, H. O., Ed., 1963. 211-214; Trinder, P. Ann. Clin. Biochem. 1969. 6: 24-27). Measurement of plasma triglyceride was done using commercial kits (Dr. Reddy's Diagnostic Division, Hyderabad, India).
The formula used to measure percent reduction in blood sugar/triglycerides is given above.

[10] = test system: HIV-1/MN; assay: Anti HIV activity, P24 antigen in infected PM-1 cells; assay type: cell-based; settings: 96 h; for inhibition at 1 µM: Human immunodeficiency virus 1, PM1, 1 μM, read-out: Percent Inhibition
Protocol: Human CD4+ T cell line PM-1 used in the assay was cultured in RPMI-1640 medium containing 10% Fetal bovine serum, 2 g/L sodium bicarbonate, 100,000 units/L Pencillin-G and 100 mg/L streptomycin. Healthy PM-1 cells were plated on the first day in a 96 well plate at […]. After 24 h HIV-1/MN was added to the culture and incubated for 2 h for infection. Cells were washed twice with PBS to remove the virus in the culture. Different concentrations of DRF compounds ranging from 10^−4 to 10^−8 M were added to the culture and incubated for 96 h. The viability of cells was then assessed by standard MTT assay and the viral antigen P24 levels were estimated by ELSA method. Based on the MTT assay values the P 24 antigen values were corrected.
All the samples were tested in triplicates and the average was used for calculations. AZT was used as standard compound for comparison.

[11] = test system: Human lymphocytes; assay: Lymphocyte proliferation, tritiated thymidine incorporation; assay type: cell-based; settings: 1 μM; PHA-stimulated human lymphocytes
Protocol: Human lymphocycles were isolated from whole blood by using Ficoll Hypaque Plus (Amersham). On day one, 1 million lymphocytes were seeded into each well of 96 well plate in 100 μL volume of RPMI 1640 medium containing 10% FCS and Phytohemagglutitin A at 10 μg/ml concentration. Plates were incubated at 37° C. in CO2 incubator for 24 h. Test compounds at various concentrations were added to test wells and only medium with vehicle was added to control wells. After 48 h of incubation […] of tritiated thymidine was added to each well. After 24 h of thymidine addition the cells were harvested and the incorporated radioactivity was determined.
Stimulation index (si) was calculated using the formula, […]

[12] = test system: tumor cell lines; settings: cited from earlier work
[13] = test system: KB; settings: cited from earlier work
[14] = test system: P388 lymphocytic leukemia; settings: cited from earlier work
[15] = test system: UACC62; assay: Sulforhodamine B growth inhibition, melanoma panel; assay type: cell-based; settings: Homo sapiens, UACC-62, 48 h, SRB, read-out: GROWTH INHIBITION (GI 50)
Protocol: as §1, §2, §3

[16] = test system: HIV-1(IIIB); settings: cited from earlier work

Molecule	GI50 ([1]; Homo sapiens, NCI/ADR-RES) [µM]	GI50 ([2]; Homo sapiens, U-251, 48 h) [µM]	GI50 ([3]; Homo sapiens) [µM]	GI50 ([4]; Homo sapiens, NCI-H522, 48 h) [µM]	GI50 ([6]; Homo sapiens, SK-OV-3) [µM]	GI50 ([7]; Homo sapiens, DU-145, 48 h) [µM]	GI50 ([8]; Homo sapiens) [µM]	GI50 ([5]; Homo sapiens) [µM]	other results
3,14,19-TRIACETYL 8,17-EPOXY ANDROGRAPHOLIDE [Example-2]	–	–	–	–	–	–	–	–	GI50 [1]: 5.5 µM; GI50 ([2]; 48 h): 3 µM; GI50 [3]: 1 µM; GI50 ([4]; 48 h): 20 µM; GI50 [5]: 7.5 µM; GI50 [6]: 4 µM; GI50 ([7]; 48 h): 20 µM; GI50 [8]: 0.1 µM; Percentage reduction TG ([9]; 250 mg/kg orally for 6 days): 19%; Percent Inhibition ([10]; 0.1 μM): 75.31%; Percent Inhibition ([10]; 1 μM): 77.25%; Stimulation Index (SI) [11]: 32
C=C1CCC2[C@](C)(CC[C@@H](O)[C@@]2(C)CO)C1/C=C/C1=CCOC1=O (stereo partly drawn) [14-deoxy-11,12-didehydroandrographolide]	–	–	–	–	–	–	–	–	cytotoxic activity in tumor cell lines [12]: no cytotoxic activity
C=C1CC[C@@H]2[C@](C)(CO)[C@H](O)CC[C@@]2(C)[C@@H]1C/C=C1/C(=O)OC[C@H]1O [Andrographolide]	–	–	–	–	–	–	–	–	cytotoxic activity against KB [13]: potent cytotoxic activity; cytotoxic activity against P388 [14]: potent cytotoxic activity
CC1(C)OC[C@@]2(C)C3CCC4(CO4)C(C/C=C4/C(=O)OC[C@H]4O)[C@@]3(C)CC[C@H]2O1 (stereo partly drawn) [Example 5, 8,17-EPOXY ANDROGRAPHOLIDE 3,19-ACETONIDE]	–	–	–	–	–	–	–	–	melting point: 179 °C
CCC(=O)OC[C@@]1(C)C2CC[C@]3(CO3)C(C/C=C3/C(=O)OC[C@H]3OC(=O)/C=C/c3ccc4c(c3)OCO4)[C@@]2(C)CC[C@H]1OC(=O)CC (stereo partly drawn) [Example 11, 14-[3′,4′-METHYLENEDIOXYCINNAMOYL]3,19-DIPROPIONYL 8,17-EPOXY ANDROGRAPHOLIDE]	–	–	–	–	–	–	–	–	melting point: 76.7 °C
C[C@]12CC[C@@H](OC(=O)CCl)[C@@](C)(COC(=O)CCl)C1CC[C@]1(CO1)C2C/C=C1/C(=O)OC[C@H]1OC(=O)CCl (stereo partly drawn) [Example-4, 3,14,19-TRIS CHLORO ACETYL 8,17-EPOXY ANDROGRAPHOLIDE]	0.8	0.8	25	5.5	0.45	4.5	15	–	GI50 [15]: 0.55 µM
C[C@]12CC[C@@H](O)[C@@](C)(CO)C1CC[C@]1(CO1)C2C/C=C1/C(=O)OC[C@H]1OC(=O)/C=C/c1ccccc1 (stereo partly drawn) [Example-7, 14-CINNAMOYL 3,19-DIHYDROXY 8,17-EPOXY ANDROGRAPHOLIDE]	2	6	0.5	6	4	5.5	9	1	Percentage reduction Body weight ([9]; 100 mg/kg orally for 6 days): 29%; Percentage reduction TG ([9]; 100 mg/kg orally for 6 days): 42%; Percentage reduction Body weight ([9]; 250 mg/kg orally for 6 days): 13%; Percentage reduction TG ([9]; 250 mg/kg orally for 6 days): 52%; Percentage reduction TG ([9]; 500 mg/kg orally for 6 days): 62%; inhibition at 1 µM [10]: 68.4%; Stimulation Index (SI) [11]: 25
CCC(=O)OC[C@@]1(C)C2CC[C@]3(CO3)C(C/C=C3/C(=O)OC[C@H]3OC(=O)/C=C/c3ccccc3)[C@@]2(C)CC[C@H]1OC(=O)CC (stereo partly drawn) [Example-8, 14-CINNAMOYL 3,19-DIPROPIONYL 8,17-EPOXY ANDROGRAPHOLIDE]	0.08	6	2.5	20	10	4	3	2.5	–
CCC(=O)OC[C@]1(C)C(OC(=O)CC)CC[C@]2(C)C(C/C=C3/C(=O)OCC3OC(=O)/C=C/c3ccc(OC)cc3)[C@]3(CCC12)CO3 (stereo partly drawn) [Example-9, 14-[4′-METHOXYCINNAMOYL]3,19-DIPROPIONYL 8,17-EPOXY ANDROGRAPHOLIDE]	3	3	0.6	4.8	2	2	3	0.75	–
CCC(=O)OC[C@@]1(C)C2CC[C@]3(CO3)C(C/C=C3/C(=O)OC[C@H]3OC(=O)/C=C/c3ccc(OC)c(OC)c3)[C@@]2(C)CC[C@H]1OC(=O)CC (stereo partly drawn) [Example-10, 8,17-EPOXY 14-[3′,4′-DIMETHOXYCINNAMOYL]3,19-DIPROPIONYL ANDROGRAPHOLIDE]	1.5	2	0.4	7.5	2.5	2.5	3.5	0.8	–
CCC(=O)OC[C@@]1(C)C2CC[C@]3(CO3)C(C/C=C3/C(=O)OC[C@H]3OC(=O)CNC(=O)OC(C)(C)C)[C@@]2(C)CC[C@H]1OC(=O)CC (stereo partly drawn) [Example-13, 14-[N-BOC GLYCINYL]3,19-DIPROPIONYL 8,17-EPOXY ANDROGRAPHOLIDE]	–	–	–	–	–	–	–	–	Percentage reduction TG ([9]; 250 mg/kg orally for 6 days): 31%; inhibition at 1 µM [10]: 73.9%; Stimulation Index (SI) [11]: 24
C=C1CC[C@@H]2[C@](C)(CO[C@@H]3O[C@H](CO)[C@@H](O)[C@H](O)[C@H]3O)CCC[C@@]2(C)[C@@H]1CCC1=CCOC1=O [neoandrographolide]	–	–	–	–	–	–	–	–	cytotoxic activity in tumor cell lines [12]: no cytotoxic activity
Dehydroandrographolide Succinic acid monoester [DASM]	–	–	–	–	–	–	–	–	minimal concentration inhibitory to HIV-1(IIIB) [16]: 1.6 to 3.1 µg/mL
